Data set [1] deals with C57BL/6 female mice. Put plainly: In vivo acute toxicity study. To be noted: 14 days. How it is done:
In vivo acute toxicity study. The acute toxicity study for compound 4e was performed in twelve-week-old C57BL/6 female mice via intraperitoneal injection and was approved by the University Animal Ethics Board under registration number 982. All experiments were performed in accordance with Brazilian guidelines and regulations. Dosing and analysis were performed according to 423 OECD guidelines and reviewed by. Each animal group had n = 3 or 4 (as indicated) and received only one intraperitoneal injection (Day 0) of compound 4e dissolved in […] PBS and 3% DMSO. The control group animals received only 3% DMSO in PBS. The first dose of the compound was 100 mg/kg. Subsequent dose levels (200 mg/kg and 400 mg/kg) were determined based on the result obtained from the previous dosing. The animals were examined every day, twice a day, for mortality and morbidity for 14 days, when all animals were anesthetized (ketamine 100 mg/kg and xylazine 10 mg/kg) followed by cervical dislocation. Gross necropsy and histology of the main organs were performed. The animals’ body weights and average food consumption were measured every 7 days. As an indication of morbidity, the following signs were assessed: tremors; convulsion; salivation; diarrhea; lethargy; coma; pain signs; increased rear arching; and mobility impairment. The necropsy included an examination of the external characteristics of the carcass; external body orifices; the abdominal, thoracic, and cranial cavities; organs/tissues of the liver, thymus, right kidney, […], heart, and lung. Major organs were analyzed by histopathology. For more details, see Supplementary Methods.

Data set [2] relates to SCC9 cells. Put plainly: Time-lapse video microscopy. To be noted: SCC9, 2 × IC50, 72 h time-lapse. The data set is classed as cell-based, human. How it is done: Video microscopy. […] For 72 h, phase-contrast images of the same field were captured every minute using a Hamamatsu C2400 CCD camera (Hamamatsu, Japan). The images of each experimental condition were integrated into videos using ImageJ software (National Institute of Health, Bethesda, MD, USA), and different times (indicated) were selected according to the morphological change observed during the treatment.

The subject of data set [3] is SCC25 OSCC cell line. Put plainly: MTT cell viability assay (cytotoxicity), SCC25. The data set is classed as cell-based, human. How it is done:
Cells and reagents. Human SCC-4, SCC-9, and SCC-25 cells, derived from a human oral tongue SCC (squamous cell carcinoma) were obtained from the ATCC (CRL-1624, CRL-1629, and CRL-1628, respectively) and maintained in 1:1 DMEM/F12 (Dulbecco’s modified Eagle medium and Ham’s F12 medium; Gibco (Thermo Fisher, Waltham, MA, USA)) supplemented with 10% (v/v) FBS (fetal bovine serum; Invitrogen, Thermo Fisher, Waltham, MA, USA) and 400 ng/mL hydrocortisone (Sigma-Aldrich Co., St. Louis, MO, USA). Primary normal human gingival fibroblasts were obtained from the ATCC (PCS-201-018) and maintained in DMEM supplemented with 10% (v/v) FBS and were used in a maximum of six passages. The cells were grown in a humidified environment containing 5% CO2 at 37 °C. […] Carboplatin stock was prepared in water (Fauldcarbo®; LibbsFarmacêutica, São Paulo, SP, Brazil) and was used as a standard anticancer compound.
Cell viability assay (cytotoxicity) and compound stability assay. The viability of SCC cell lines and primary human fibroblast cells was evaluated using the MTT assay as in [48]. Briefly, the cells were grown in triplicates in 96-well plates (5 × 10^3 cells/well) until confluence. Then, the medium was removed, fresh medium was added, and the cells were returned to the incubator in the presence of different compounds. DMSO at the same concentrations was used as a 100% cell viability control. After 48 h, the cells were incubated with 5 mg/mL MTT reagent (3-(4,5-dimethyl-2-thiazolyl)-2,5-diphenyl-2-H-tetrazolium bromide) (Sigma-Aldrich Co., St. Louis, MO, USA) for 3.5 h. After that, formazan crystals were dissolved in MTT solvent solution (DMSO/methanol 1:1 v/v) and the absorbance at 560 nm was evaluated using an EPOCH microplate spectrophotometer (BioTek Instruments, Winooski, VT, USA) with the background absorbance at 670 nm subtracted.
Statistical analysis, IC50 calculation. The data are presented as means ±\SD. IC50 values for the MTT assays were obtained by nonlinear regression using the […] 5.0 program (Intuitive Software for Science, San Diego, CA, USA) from at least three independent experiments. A dose–response (inhibitor) vs. response curve using the least squares method was used to determine the IC50, SD, and R^2 of the data. The selectivity index was calculated as SI = IC50 of the compound in normal oral fibroblast cells/IC50 of the same compound for each oral cancer cell line (SCC-4, SCC-9, and SCC-25) and the mean was calculated when indicated.
(Tetrazolium assays rely on reduction of a dye to a coloured formazan, in cell work by metabolically active cells.)

The test system of data set [4] is SCC9 cells. Description: Caspase 3/7 activity, flow cytometry. The data set is classed as cell-based, human. To be noted: SCC9, 2× IC50, 48 h. How it is done:
Phosphatidylserine exposure analysis (apoptosis). Cells of the SCC9 cell line were plated in 6-well plates (5 × 10^5 cells/well), trypsinized 48 h after treatment, labeled using the Annexin V-FITC Apoptosis Detection Kit according to the manufacturer’s protocol (#BMS500FI/300, Invitrogen), and analyzed by FACScalibur flow cytometry as in [50]. Furthermore, 5 × 10^4 SCC9 cells were plated in a 24-well plate containing 1 mL of DMEM/F12 with 10% FBS per well. CellEvent™ Caspase-3/7 Reagent (#R37111, Invitrogen) was diluted in a culture medium according to the manufacturer’s instructions. […] The cells were analyzed by flow cytometry at the time of 48 h of treatment.
On the technique in general: A flow cytometer gives signals particle by particle.

“And” between values parts separate entries of the source, which are not always exact repeats. Equal entries are not always repeated.

For orientation: IC50 means the concentration that gives 50% inhibition. Consider `CC1(C)CC(=O)C2=C(C1)NC1=C(C(=O)c3ccccc3C1=O)C2c1ccc(Cl)cc1Cl` (stereo not shown) [4e, 12-(2,4-dichlorophenyl)-3,3-dimethyl-3,4-dihydrobenzo[b]acridine-1,6,11(2H,5H,12H)-trione], for which, in data set [1] (100 mg/kg single i.p. dose), the “Change in Body Weight” value was “Absent”, the “Change in Food Consumption” value is given as “Absent”, the “Gross Necropsy” value is listed as “No alteration” and the Histology entry is “No significant alteration in comparison to control”. Besides, the Morbidity entry in data set [1] (100 mg/kg single i.p. dose) is “Absent”. For the same compound, in data set [1] (200 mg/kg single i.p. dose), the “Change in Body Weight” value is recorded as “Absent”; the “Change in Food Consumption” value is “Absent”; the “Gross Necropsy” value is given as “No alteration”; the Histology result is “Presence of mild Perivascular and periportal lymphocyte focus and Bronchus-Associated Lymphoid Tissue (BALT)”. In addition, the Morbidity entry in data set [1] (200 mg/kg single i.p. dose) was “Absent”. In data set [1] (400 mg/kg single i.p. dose), the “Change in Body Weight” value is recorded as “Absent”; the “Change in Food Consumption” value is listed as “Absent”; the “Gross Necropsy” value is reported as “No alteration”; the Histology entry is “Presence of mild Perivascular and periportal lymphocyte focus and Bronchus-Associated Lymphoid Tissue (BALT)”. Moreover, the Morbidity result in data set [1] (400 mg/kg single i.p. dose) is on record as “Absent”. The cell morphology result in data set [2] was “formation of membrane blebs at early times, between 16 and 48 h, followed by cells shrinkage”. In data set [3] (Homo sapiens, SCC-25, SCC25, 48 h, MTT, read-out: Oral Tumor Cells SCC25 IC50), the half-maximal inhibitory concentration (IC50) came to 21.5 µM. Moreover, the “SCC25 S.I.” value in data set [3] (IC50 normal oral fibroblasts / IC50 SCC25) was found to be 4.1. Moreover, in data set [4], the “active caspase 3/7 labeling, cells” value is 52.4% and ~ 52%.

These data come from article PMC9415509, “Pro-Apoptotic Antitumoral Effect of Novel Acridine-Core Naphthoquinone Compounds against Oral Squamous Cell Carcinoma” (Molecules, 2022).
